Assay results published in BigSolDB 2.1.

Conditions: in water

N#CN=C(N)N
Conditions | solubility (mole fraction)
278.15 K | 0.00303
283.15 K | 0.00387
288.15 K | 0.00526
293.15 K | 0.00707
298.15 K | 0.00891
303.15 K | 0.0114
308.15 K | 0.0141
313.15 K | 0.0172
318.15 K | 0.021
323.15 K | 0.0265
